Key:
[1] = system: riboswitch 15D10; test: Luciferase reporter with 15D10 riboswitch (Luci-15D10) in HEK 293 cells; assay type: cell-based, human; settings: Homo sapiens, HEK293, 24 h, 50 μM, HEK 293 cells, read-out: Fold increase in riboswitch 15D10-regulated luciferase expression, HEK
Experimental: Transfection: 3.5×10^4 human embryonic kidney (HEK) 293 cells were plated in a 96-well flat bottom plate the day before transfection. Plasmid DNA (500 ng) was added to a tube or a 96-well U-bottom plate. […] Then, 50 μL of this diluted transfection reagent was added to the DNA, mixed, and incubated at RT for 20 min. Finally, 7 μL of this solution was added to a well of cells in the 96-well plate. Four hours after transfection, medium containing transfection solution was replaced by medium containing either TPP, fursultiamine, prosultiamine, bisbentiamine, beclotiamine hydrochloride, or sulbutiamine as aptamer inducers.
Firefly luciferase assay of cultured cells: Twenty-four hours after media change, plates were removed from the incubator, and equilibrated to RT for several minutes on a lab bench, then aspirated. Glo-lysis buffer (Promega, 100 μL, RT) was added, and the plates allowed to remain at RT for at least 5 minutes. Then, the well contents were mixed by 50 μL trituration, and 20 μL of each sample was mixed with 20 μL of bright-glo reagent (Promega) that had been diluted to 10% in glo-lysis buffer. 96 wells were spaced on an opaque white 384-well plate. Following a 5 min incubation at RT, luminescence was measured using a Tecan machine with 500 ms read time. The luciferase activity was expressed as mean arbitrary light units (ALU)±S.D., and fold induction was calculated as the quotient of the luciferase activity obtained from cells with TPP or analog treatment divided by the luciferase activity obtained from cells without TPP or analog treatment.

[2] = system: riboswitch 15D10; test: Luciferase reporter with 15D10 riboswitch (Luci-15D10) in AML12 cells; assay type: cell-based, mouse; settings: Mus musculus, AML12, 24 h, 50 μM, AML12 cells, read-out: Fold increase in riboswitch 15D10-regulated luciferase expression, AML

Row | SMILES | fold induction at 50 µM ([1]; Table 3) | fold induction at 50 µM ([2]; Table 3) | fold induction at 50 µM ([1]; Table 2) | fold induction at 50 µM ([2]; Table 2)
1 | C/C(=C(\CCO)SC(=O)c1ccc(C)cc1Oc1ccccc1Cl)N(C=O)Cc1cnc(C)nc1N [Compound M133, (Z)—S-(2-(N-((4-amino-2-methylpyrimidin-5-yl)methyl)formamido)-5-hydroxypent-2-en-3-yl) 2-(2-chlorophenoxy)-4-methylbenzothioate] | 100 | 273 |  | 
2 | C/C(=C(\CCO)SC(=O)c1c(Cl)cc(-c2ccccc2)cc1Cl)N(C=O)Cc1cnc(C)nc1N [Compound M66, (Z)—S-(2-(N-((4-amino-2-methylpyrimidin-5-yl)methyl)formamido)-5-hydroxypent-2-en-3-yl) 3,5-dichloro-[1,1′-biphenyl]-4-carbothioate] |  |  | 1.1 | 0.4
3 | C/C(=C(\CCO)SC(=O)C(c1ccccc1)C(C)C)N(C=O)Cc1cnc(C)nc1N (stereo not drawn) [Compound M59, (Z)—S-(2-(N-((4-amino-2-methylpyrimidin-5-yl)methyl)formamido)-5-hydroxypent-2-en-3-yl) 3-methyl-2-phenylbutanethioate] |  |  | 1.1 | 1
4 | C/C(=C(\CCO)SC(=O)C(C)(c1ccccc1)c1ccccc1)N(C=O)Cc1cnc(C)nc1N [Compound M58, (Z)—S-(2-(N-((4-amino-2-methylpyrimidin-5-yl)methyl)formamido)-5-hydroxypent-2-en-3-yl) 2,2-diphenylpropanethioate] |  |  | 1.1 | 1.5
5 | C/C(=C(\CCO)SC(=O)c1ccccc1Oc1cccc(C(C)(C)C)c1)N(C=O)Cc1cnc(C)nc1N [Compound M139, (Z)—S-(2-(N-((4-amino-2-methylpyrimidin-5-yl)methyl)formamido)-5-hydroxypent-2-en-3-yl) 2-(3-(tert-butyl)phenoxy)benzothioate] | 37 | 188 |  | 
6 | C/C(=C(\CCO)SC(=O)C1(C)CCCCC1)N(C=O)Cc1cnc(C)nc1N [Compound M57, (Z)—S-(2-(N-((4-amino-2-methylpyrimidin-5-yl)methyl)formamido)-5-hydroxypent-2-en-3-yl) 1-methylcyclohexane-1-carbothioate] |  |  | 1.2 | 24.4
7 | C/C(=C(\CCO)SC(=O)C(C)(C)c1ccc2ccccc2c1)N(C=O)Cc1cnc(C)nc1N [Compound M63, (Z)—S-(2-(N-((4-amino-2-methylpyrimidin-5-yl)methyl)formamido)-5-hydroxypent-2-en-3-yl) 2-methyl-2-(naphthalen-2-yl)propanethioate] |  |  | 1.7 | 19
8 | C/C(=C(\CCO)SC(=O)C1(C)Cc2ccccc2C1)N(C=O)Cc1cnc(C)nc1N [Compound M62, (Z)—S-(2-(N-((4-amino-2-methylpyrimidin-5-yl)methyl)formamido)-5-hydroxypent-2-en-3-yl) 2-methyl-2,3-dihydro-1H-indene-2-carbothioate] |  |  | 49 | 110
9 | C/C(=C(\CCO)SC(=O)c1ccccc1Oc1ccc2c(c1)OCCO2)N(C=O)Cc1cnc(C)nc1N [Compound M147, (Z)—S-(2-(N-((4-amino-2-methylpyrimidin-5-yl)methyl)formamido)-5-hydroxypent-2-en-3-yl) 2-((2,3-dihydrobenzo[b][1,4]dioxin-6-yl)oxy)benzothioate] | 193 | 267 |  | 
10 | C/C(=C(\CCO)SC(=O)c1ccc(-c2ccccc2)cc1Cl)N(C=O)Cc1cnc(C)nc1N [Compound M68, (Z)—S-(2-(N-((4-amino-2-methylpyrimidin-5-yl)methyl)formamido)-5-hydroxypent-2-en-3-yl) 3-chloro-[1,1′-biphenyl]-4-carbothioate] |  |  | 303 | 209
11 | C/C(=C(\CCO)SC(=O)c1ccc(Oc2ccccc2)cc1)N(C=O)Cc1cnc(C)nc1N [Compound M73, (Z)—S-(2-(N-((4-amino-2-methylpyrimidin-5-yl)methyl)formamido)-5-hydroxypent-2-en-3-yl) 4-phenoxybenzothioate] |  |  | 205 | 200
